Reference: ChEMBL document CHEMBL4007496, “Isolation and characterization of diterpene glycosides from Siegesbeckia pubescens” (Bioorg Med Chem Lett, 2017)

Experiments:
RAW264.7 = assay: Antiinflammatory activity in mouse RAW264.7 cells assessed as inhibition of LPS-induced nitric oxide production preincubated for 30 mins followed by LPS challenge measured after 24 hrs by Griess assay; format: functional, cell-based
MDA-MB-231 = assay: Inhibition of EGF-induced invasion of human MDA-MB-231 cells by MTT assay; format: functional, cell-based

SMILES	IC50 (RAW264.7) [µM]	IC50 (MDA-MB-231) [µM]
CC1(C)[C@@H](O[C@@H]2O[C@H](CO)[C@@H](O)[C@H](O)[C@H]2O)CC[C@@]2(C)[C@@H]3CC[C@](C)([C@@H](O)CO)C=C3CC[C@H]12	> 100	24.8
CC1(C)[C@H]2CCC3=C(CC[C@](C)([C@@H](O)CO)C3)[C@]2(C)CC[C@H]1O[C@@H]1O[C@H](CO)[C@@H](O)[C@H](O)[C@H]1O	> 100	> 25
CC1(C)[C@H]2CCC3=C[C@@](C)(C=O)CC[C@H]3[C@]2(C)CC[C@H]1O[C@@H]1O[C@H](CO)[C@@H](O)[C@H](O)[C@H]1O	> 100	> 25
CC1(C)[C@H]2CCC3=C[C@@](C)([C@H](O)CO)CC[C@H]3[C@]2(C)CC[C@H]1O[C@@H]1O[C@H](CO)[C@@H](O)[C@H](O)[C@H]1O	> 100	0.27
C=C1C[C@]23CC[C@@H]4[C@](C)(CO[C@@H]5O[C@H](CO)[C@@H](O)[C@H](O)[C@H]5O)CC(=O)C[C@@]4(C)[C@@H]2CC[C@@]1(O)C3	> 100	26.8
CC1(C)[C@H]2CCC3=C[C@@](C)([C@@H](O)CO)CC[C@H]3[C@]2(C)CC[C@H]1O[C@@H]1O[C@H](CO)[C@@H](O)[C@H](O)[C@H]1O	> 100	> 25
CC1(C)[C@H](O)CC[C@@]2(C)[C@@H]3CC[C@](C)([C@@H](O)CO)C=C3CC[C@H]12 [DARUTIGENOL]	–	> 25
